This note sets out measurements from patent US12606827B2, “Compounds for treatment of osteoarthritis” (Altos Labs, Inc., priority 2020, dated 2026).

Each structure is given as a SMILES string.

This test has as its system Healthy Articular Chondrocytes (HACs). The test is described as follows: LPS-stimulated intracellular ROS (CM-H2DCFDA) in healthy chondrocytes. It is filed as cell-based, human. Conditions: 0.1 μM and 1 μM, 1 h pretreatment, then LPS 1 μg/ml for 48 h. The procedure:
Human articular chondrocytes (HAC) were transiently transfected with a siRNA control or targeting USP16 as described in Example 2. 36 hours post knockdown, cells were stimulated with LPS 1 μg/ml) for 48 h. Healthy Articular Chondrocytes (HACs) were pretreated with 0.1- and 1-μM Compound 2 for 1 h and then stimulated with LPS (1 μg/ml) for 48 h. At the end of the treatment, fluorescent dye, CM-H2DCFDA (final concentration 10 μl of 20 μM) was added to cells and incubated for 30 min in CO2 incubator to measure the intracellular ROS produced in these cells. After incubation, the cells were washed with cold-phosphate buffered saline and the fluorescence intensity of the stained cells was measured at an excitation and emission wavelength of 485 nm and 530 nm respectively. Fluorescence intensity was then normalized for cell number using Hoechst staining.
Chondrocytes were pretreated with 0.1- and 1-μM CA for 1 h and then stimulated with LPS (1 μg/m)l for 48 h. For siRNA experiment, LPS stimulation was performed 36 hours after knockdown for additional 48 h. […] After incubation, the cells were washed with cold-phosphate buffered saline and the fluorescence intensity of the stained cells was measured at an excitation and emission wavelength of 485 nm and 530 nm respectively. Fluorescence intensity was then normalized for cell number using Hoechst staining.

For `C#Cc1ccc(CNC(=O)c2cc(C(=O)CCl)cn2C)cc1` [Compound 2], the “inflammation-induced oxidative stress (intracellular ROS)” value was “reduced inflammation-induced oxidative stress in healthy chondrocytes in a dose-dependent manner”.
